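Here, GI50 denotes the concentration required for 50% inhibition of growth. At the TGI there is no net growth.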
Experiments:
Test in all cases: inhibition of tumour cell growth, NCI panel, 384-well format
[1] = test system: T-47D breast
[2] = test system: COLO 205 colon
[3] = test system: MCF7 breast
[4] = test system: SK-OV-3 ovarian
[5] = test system: MDA-MB-435 melanoma
[6] = test system: HL-60(TB) leukemia
[7] = test system: IGROV1 ovarian
[8] = test system: HOP-62 NSCLC
[9] = test system: MALME-3M melanoma
[10] = test system: OVCAR-3 ovarian
[11] = test system: BT-549 breast
[12] = test system: SN12C renal
[13] = test system: NCI-H23 lung
[14] = test system: A549 NSCLC
[15] = test system: K-562 leukemia
[16] = test system: RXF 393 renal
[17] = test system: OVCAR-4 ovarian
[18] = test system: TK-10 renal
[19] = test system: CAKI-1 renal
[20] = test system: U251 glioblastoma
[21] = test system: HT29 colon
[22] = test system: NCI/ADR-RES ovarian
[23] = test system: SF-539 CNS
[24] = test system: HCC-2998 colon
[25] = test system: UACC-257 melanoma
[26] = test system: M14 melanoma
[27] = test system: MDA-MB-231 breast
[28] = test system: NCI-H322M lung
[29] = test system: PC-3 prostate
[30] = test system: KM12 colon
[31] = test system: LOX IMVI melanoma
[32] = test system: SK-MEL-28 melanoma
[33] = test system: UO-31 renal
[34] = test system: SR leukemia
[35] = test system: EKVX NSCLC
[36] = test system: SNB-75 CNS
[37] = test system: SNB-19 CNS
[38] = test system: NCI-H226 lung
[39] = test system: HS 578T breast
[40] = test system: DU-145 prostate
[41] = test system: SW-620 colon
[42] = test system: CCRF-CEM leukemia
[43] = test system: MOLT-4 leukemia
[44] = test system: SF-268 CNS
[45] = test system: HOP-92 NSCLC
[46] = test system: MDA-MB-468 breast
[47] = test system: OVCAR-8 ovarian
[48] = test system: UACC-62 melanoma
[49] = test system: SK-MEL-5 melanoma
[50] = test system: ACHN renal
[51] = test system: SF-295 CNS
[52] = test system: 786-0 renal
[53] = test system: OVCAR-5 ovarian
[54] = test system: A498 renal
[55] = test system: RPMI-8226 leukemia
[56] = test system: HCT-15 colon
[57] = test system: NCI-H460 NSCLC
[58] = test system: NCI-H522 lung

CN(C)CC(=O)N1CCC(c2ccc(NC(=O)c3ncc(C#N)[nH]3)c(C3=CCCCC3)c2)CC1
GI50 [1]: 12.1 µM | TGI [1]: 24.5 µM | GI50 [2]: 3.56 µM | TGI [2]: 11.7 µM | GI50 [3]: 2.72 µM | TGI [3]: 10.7 µM | GI50 [4]: 3.62 µM | TGI [4]: 13.3 µM | GI50 [5]: 3 µM | TGI [5]: 9.64 µM | GI50 [6]: 2.06 µM | TGI [6]: 4.49 µM | GI50 [7]: 10.3 µM | TGI [7]: 22 µM | GI50 [8]: 4.18 µM | TGI [8]: 14.8 µM | GI50 [9]: 1.66 µM | TGI [9]: 3.57 µM | GI50 [10]: 10.6 µM | TGI [10]: 22.4 µM | GI50 [11]: 2.4 µM | TGI [11]: 9.81 µM | GI50 [12]: 1.51 µM | TGI [12]: 13 µM | GI50 [13]: 2.93 µM | TGI [13]: 10.7 µM | GI50 [14]: 4.25 µM | TGI [14]: 14.8 µM | GI50 [15]: 2.97 µM | TGI [15]: 11.3 µM | GI50 [16]: 5.03 µM | TGI [16]: 17.2 µM | GI50 [17]: 15.5 µM | TGI [17]: 28.9 µM | GI50 [18]: 8.66 µM | TGI [18]: 20.8 µM | GI50 [19]: 4.11 µM | TGI [19]: 14.9 µM | GI50 [20]: 5.48 µM | TGI [20]: 17.6 µM | GI50 [21]: 1.71 µM | TGI [21]: 3.26 µM | GI50 [22]: 15.7 µM | TGI [22]: 29.1 µM | GI50 [23]: 3.02 µM | TGI [23]: 13 µM | GI50 [24]: 2.48 µM | TGI [24]: 5.33 µM | GI50 [25]: 1.98 µM | TGI [25]: 3.52 µM | GI50 [26]: 1.89 µM | TGI [26]: 3.71 µM | GI50 [27]: 6.96 µM | TGI [27]: 19.2 µM | GI50 [28]: 7.63 µM | TGI [28]: 20.1 µM | GI50 [29]: 5.35 µM | TGI [29]: 17.3 µM | GI50 [30]: 0.141 µM | TGI [30]: 3.52 µM | GI50 [31]: 3.32 µM | TGI [31]: 10.6 µM | GI50 [32]: 1.8 µM | TGI [32]: 3.28 µM | GI50 [33]: 12.1 µM | TGI [33]: 24.7 µM | GI50 [34]: 2.44 µM | TGI [34]: 5.54 µM | GI50 [35]: 12.5 µM | TGI [35]: 25 µM | GI50 [36]: 4.4 µM | TGI [36]: 15.6 µM | GI50 [37]: 9.85 µM | TGI [37]: 21.5 µM | GI50 [38]: 3.85 µM | TGI [38]: 14.2 µM | GI50 [39]: 2.66 µM | TGI [39]: 6.73 µM | GI50 [40]: 10.4 µM | TGI [40]: 22.2 µM | GI50 [41]: 10.4 µM | TGI [41]: 22.2 µM | GI50 [42]: 3.27 µM | TGI [42]: 10.7 µM | GI50 [43]: 2.61 µM | TGI [43]: 7.17 µM | GI50 [44]: 6.84 µM | TGI [44]: 19.4 µM | GI50 [45]: 1.43 µM | TGI [45]: 10.8 µM | GI50 [46]: 4.3 µM | TGI [46]: 9.35 µM | GI50 [47]: 10.6 µM | TGI [47]: 22.4 µM | GI50 [48]: 1.87 µM | TGI [48]: 3.6 µM | GI50 [49]: 1.7 µM | TGI [49]: 4.34 µM | GI50 [50]: 7.59 µM | TGI [50]: 20 µM | GI50 [51]: 3.47 µM | TGI [51]: 11.3 µM | GI50 [52]: 1.93 µM | TGI [52]: 4.41 µM | GI50 [53]: 4.13 µM | TGI [53]: 13.8 µM | GI50 [54]: 2.04 µM | TGI [54]: 3.91 µM | GI50 [55]: 4.07 µM | TGI [55]: 15.3 µM | GI50 [56]: 1.82 µM | TGI [56]: 3.58 µM | GI50 [57]: 5.42 µM | TGI [57]: 16.8 µM | GI50 [58]: 10.6 µM | TGI [58]: 22.4 µM

C=CC(=O)N[C@H]1C=C(C)c2c(-c3cnc4ccccc4c3)c3c(N)ncnc3n2C1
GI50 [1]: 11.5 µM | TGI [1]: 82 µM | GI50 [2]: 26.2 µM | TGI [2]: 70.4 µM | GI50 [3]: 19.7 µM | TGI [3]: > 100 µM | GI50 [4]: 1.61 µM | TGI [4]: 15.1 µM | GI50 [5]: 31 µM | TGI [5]: 87 µM | GI50 [6]: 26.7 µM | TGI [6]: 41.6 µM | GI50 [7]: 0.683 µM | TGI [7]: 8.36 µM | GI50 [8]: 17.1 µM | TGI [8]: 76 µM | GI50 [9]: 11.7 µM | TGI [9]: 24.1 µM | GI50 [10]: 7.32 µM | TGI [10]: 24.9 µM | GI50 [11]: 16.8 µM | TGI [11]: 35.7 µM | GI50 [12]: 15.6 µM | TGI [12]: 63.9 µM | GI50 [13]: 18.2 µM | TGI [13]: 40.6 µM | GI50 [14]: 11.1 µM | TGI [14]: 30.2 µM | GI50 [15]: 23.9 µM | TGI [15]: 80.6 µM | GI50 [16]: 10 µM | TGI [16]: 27.7 µM | GI50 [17]: 16.2 µM | TGI [17]: 65.5 µM | GI50 [18]: 0.228 µM | TGI [18]: 10.6 µM | GI50 [19]: 3.49 µM | TGI [19]: 21.3 µM | GI50 [21]: 17.5 µM | TGI [21]: 58.5 µM | GI50 [22]: 34.1 µM | TGI [22]: > 100 µM | GI50 [23]: 15.1 µM | TGI [23]: 29.3 µM | GI50 [24]: 19.3 µM | TGI [24]: 35.1 µM | GI50 [25]: 18.9 µM | TGI [25]: 48 µM | GI50 [26]: 13.2 µM | TGI [26]: 31.9 µM | GI50 [27]: 13.7 µM | TGI [27]: 35.4 µM | GI50 [28]: 0.109 µM | TGI [28]: 16.4 µM | GI50 [29]: 34.1 µM | TGI [29]: 98.8 µM | GI50 [30]: 18.8 µM | TGI [30]: 36.3 µM | GI50 [31]: 14.7 µM | TGI [31]: 28.1 µM | GI50 [32]: 14.2 µM | TGI [32]: 46.2 µM | GI50 [33]: 12.2 µM | TGI [33]: > 100 µM | GI50 [34]: 2.45 µM | TGI [34]: 10.9 µM | GI50 [35]: 0.312 µM | TGI [35]: 25.5 µM | GI50 [36]: 17.6 µM | TGI [36]: 45.9 µM | GI50 [37]: 27 µM | TGI [37]: 73.3 µM | GI50 [38]: 5.39 µM | TGI [38]: 26.3 µM | GI50 [39]: 12.8 µM | TGI [39]: 26.4 µM | GI50 [40]: 14.1 µM | TGI [40]: 44.9 µM | GI50 [41]: 28.5 µM | TGI [41]: 61.6 µM | GI50 [42]: 14.9 µM | TGI [42]: 28.2 µM | GI50 [43]: 5.47 µM | TGI [43]: 17.5 µM | GI50 [44]: 15.1 µM | TGI [44]: 45.6 µM | GI50 [45]: 10.2 µM | TGI [45]: 33.1 µM | GI50 [46]: 0.0243 µM | TGI [46]: 0.0646 µM | GI50 [47]: 15.8 µM | TGI [47]: 35 µM | GI50 [48]: 6 µM | TGI [48]: 18.9 µM | GI50 [49]: 13.2 µM | TGI [49]: 26 µM | GI50 [50]: 0.378 µM | TGI [50]: 18 µM | GI50 [51]: 29.5 µM | TGI [51]: > 100 µM | GI50 [52]: 12.7 µM | TGI [52]: 28.8 µM | GI50 [53]: 26.2 µM | TGI [53]: 74.1 µM | GI50 [54]: 2.11 µM | TGI [54]: 20.1 µM | GI50 [55]: 10 µM | TGI [55]: 22.1 µM | GI50 [56]: 25.2 µM | TGI [56]: 82 µM | GI50 [57]: 14.8 µM | TGI [57]: 30 µM | GI50 [58]: 0.242 µM | TGI [58]: 9.32 µM
